The text below walks through data of PubChem BioAssay (NCI).

Structures are written as SMILES. Values joined by “and” are separate entries in the source; they are usually repeats but may differ in a detail not shown here. Equal values may be shown once.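 How tested: cells in 96-well plates exposed to compound for 48 hours at five concentrations. The concentration for 50% growth inhibition is given as GI50. Definition used: TGI = concentration required for complete inhibition of growth.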 Some results are limits rather than exact numbers.

Common to all, as to test: NCI-60 cell line screen, 48 h
Test [1] relates to UACC-62 melanoma.
The test system of test [2] is SF-268 CNS.
The test system of test [3] is SNB-75 CNS.
For test [4], the system named is SW-620 colon.
The subject of test [5] is NCI-H23 lung.
Test [6] has as its system DMS 273 small cell lung.
In test [7] the test system is A549 NSCLC.
Test [8] relates to BT-549 breast.
Test [9] relates to MDA-MB-231 breast.

Regarding `c1ccc(SC(Sc2ccccc2)=C2CCC2)cc1`, the TGI in [1], in [2], in test [3], in test [4], in test [5] and in test [6] was greater than 100 µM in each case. Moreover, the TGI in test [7] is greater than 100 µM.

For the compound `CSC(=NC(=O)c1ccccc1Cl)SCCSC(=NC(=O)c1ccccc1Cl)SC`, the TGI in test [1], in test [2], in test [3], in test [4], in [5] and in test [6] was greater than 100 µM throughout. The compound further had a TGI in [7] greater than 100 µM.

Turning to `COc1cnc2c(c1)C(=O)c1c-2n(CCCN2CCCC2)c(=O)c2cc([N+](=O)[O-])ccc12`, the GI50 in test [1] was 0.0153 µM; in test [2], 0.0191 µM; in test [3] it was 0.0457 µM; in test [4], less than 0.01 µM; in test [8], 0.354 µM; in test [5], 0.0272 µM. The GI50 was 0.683 µM in test [9] and 0.0463 µM in test [7]. Also, the TGI in [1] was 0.631 µM; in test [2] it was 12.8 µM; in [3], 14.3 µM; in test [4], 1.34 µM; in test [8], 16 µM; in test [5], 1.25 µM. The TGI came to 2.65 µM in test [9] and 1.15 µM in test [7].

As to `COc1ccc(Br)cc1NC(=O)Nc1cccc2c1ccn2Cc1ccnc(N)c1`, the GI50 in [1] is 6.17 µM and 5.94 µM; in [2] it was 6.16 µM and > 10 µM; in test [3] it was 2.19 µM and 5.1 µM; in test [4], 2.85 µM and 6.72 µM; in test [8], 11.7 µM and > 10 µM; in test [5] it was 14.5 µM and > 10 µM. Further, the GI50 is 3.93 µM and 3.01 µM in test [9]; 5.64 µM and > 10 µM in test [7]. The TGI was 21.7 µM and > 10 µM in test [1]; 32.5 µM and > 10 µM in test [2]; 42.8 µM and > 10 µM in test [3]; 8.41 µM and > 10 µM in test [4]; 38.6 µM and > 10 µM in test [8]; 40.7 µM and > 10 µM in test [5]. For the same compound, the TGI in test [9] is 10.6 µM and > 10 µM; in test [7], 22.7 µM and > 10 µM.

Turning to `COc1cc2nc(Nc3cccc(Cl)c3)nc(N)c2cc1OC`, the GI50 in test [1] was 13 µM; in [2], 6.41 µM; in [3] it was 17.4 µM; in [4] it was 2.68 µM; in test [8] it was 13.5 µM; in [5], 14.2 µM. Moreover, the GI50 in [9] was 4.28 µM; in test [7], 9.89 µM. For the same compound, the TGI in test [1] stood at 25.7 µM; in [2], 19.9 µM; in [3] it was 32.3 µM; in test [4], 7.15 µM; in [8], 27.8 µM; in [5], 33.2 µM. The TGI is 14.5 µM in test [9] and 27.3 µM in test [7].

For `CCOC(=O)c1[nH]c2cc(Cl)ccc2c1[C@@H](C(=O)NC(C)(C)C)N(CC)C(=O)CCCCC#Cc1cccc2c1CN(C1CCC(=O)NC1=O)C2=O` (some centres not stated), the GI50 in test [1] was 1.56 µM; in [2], 0.0476 µM; in test [3] it was less than 0.01 µM; in [4], less than 0.01 µM; in test [8], less than 0.0197 µM; in test [5], 3.93 µM. Further, the GI50 was less than 0.01 µM in test [9] and 1.3 µM in [7]. For the same compound, the TGI in test [1] was 5.51 µM; in test [2], 28.7 µM; in test [3], 4.81 µM; in test [4], greater than 100 µM; in test [8] it was 4.81 µM; in test [5], 21.2 µM. Also, the TGI was 1.68 µM in [9] and greater than 89.4 µM in [7].

In the case of `CCOC(=O)C(=Cc1ccc(C#N)cc1)C(=O)OCC`, the GI50 is 1.99 µM in [1]; 2.29 µM in [2]; 2.17 µM in test [3]; 2.1 µM in test [4]; 2.06 µM in [8]; 2.15 µM in test [5]. The GI50 is 2.69 µM in test [9] and 4.11 µM in test [7]. For the same compound, the TGI in test [1] stood at 4.54 µM; in test [2] it was 7.57 µM; in test [3], 10.5 µM; in test [4] it was 4.72 µM; in test [8] it was 4.9 µM; in test [5] it was 5.53 µM. Further, the TGI is 6.95 µM in test [9] and 14.5 µM in test [7].

With `COc1nc(N)nc2c1ncn2C1CC(O)C(CO)O1` (configuration not stated), the TGI in [1], in test [2], in test [3], in [4], in [8] and in test [5] was greater than 100 µM in each case. Besides, the TGI in test [9] and in [7] was greater than 100 µM in each case.
